Test results: patent US8999956B2, “N-[(het)arylalkyl)] pyrazole(thio)carboxamides and their heterosubstituted analogues” (Bayer Intellectual Property GmbH, priority 2010, dated 2015)
“And” between values parts separate entries of the source, which are not always exact repeats. Identical values can stand only once. Like-named read-outs stand apart in the source and are kept apart here.

Tests used:
[1] = log P by HPLC on reversed-phase column (EEC Directive 79/831 Annex V.A8); format: physicochemical
Description: In table 1, the log P values were determined in accordance with EEC Directive 79/831 Annex V.A8 by HPLC (High Performance Liquid Chromatography) on a reversed-phase column (C18), using the method described below: Temperature: 40° C.; […]

[2] = tested on: aflatoxines produced by Aspergillus parasiticus; test: microbe, parasite or virus in culture; format: cell-based
[3] = tested on: Aspergillus parasiticus; test: microbe, parasite or virus in culture; format: cell-based
[4] = tested on: Alternaria solani; test: In vivo preventive test on Alternaria solani (tomato); details: 500 ppm of active ingredient, evaluated 7 days after inoculation
Description: (§1) Solvent: 49 parts by weight of N,N-dimethylformamide Emulsifier: 1 part by weight of Alkylarylpolyglycolether To produce a suitable preparation of active compound, 1 part by weight of active compound is mixed with the stated amounts of solvent and emulsifier, and the concentrate is diluted with water to the desired concentration. To test for preventive activity, young plants are sprayed with the preparation of active compound at the stated rate of application. One day after this treatment, the plants are inoculated with an aqueous spore suspension of Alternaria solani.

[5] = tested on: Pyrenophora teres; test: In vivo preventive test on Pyrenophora teres (barley); details: 500 ppm of active ingredient, evaluated 7-9 days after inoculation
Description: as §1, with “alkylaryl polyglycol ether” for “Alkylarylpolyglycolether”, “Pyrenophora teres.” for “Alternaria solani.”

## CC1CCCC(Cc2cccc(Cl)c2)C1NC(=O)c1c(C(F)F)nn(C)c1F (mixture of isomers) [Example 255]
[1]; mixture of two or more isomers, one value per isomer, HPLC reversed-phase C18, 40° C., 0.1% aqueous formic acid and acetonitrile
  logP: 4.31 and 4.44 and 4.54
[2]
  % Inhibition of Aflatoxin at 50 μM: 100%
[3]
  % Inhibition of fungal growth at 50 μM: 90%

## CC(CNC(=O)c1c(C(F)F)nn(C)c1Cl)Cc1ccc(Cl)c(Cl)c1 (racemic) [Example 127]
[1]
  logP: 3.87
[4]
  Efficacy: 90%
[5]
  Efficacy: 100%

## Cn1nc(C(F)F)c(C(=O)NC(COc2ccc3ccccc3c2)C2CC2)c1F (racemic) [Example 137]
[1]
  logP: 3.74
[4]
  Efficacy: 95%
[5]
  Efficacy: 89%

## CN(C(=O)c1c(C(F)F)nn(C)c1F)C(COc1ccccc1Cl)C1CC1 (racemic) [Example 145]
[1]
  logP: 3.44
[4]
  Efficacy: 70%
[5]
  Efficacy: 70%

## Cc1cccc(C)c1CC(C)CNC(=O)c1c(C(F)F)nn(C)c1Cl (racemic) [Example 149]
[1]
  logP: 3.63
[4]
  Efficacy: 90%
[5]
  Efficacy: 95%

## CC(O)C1CCCCC1NC(=O)c1c(C(F)F)nn(C)c1F (single isomer, unassigned) [Example 341]
[1]
  logP: 1.72 isomer A
[4]
  Efficacy: 80%

## CN(CCCc1ccccc1)C(=O)c1c(C(F)F)nn(C)c1Cl [Example 5]
[1]
  logP: 2.82
[4]
  Efficacy: 80%

## CN(CCCc1ccccc1)C(=O)c1c(C(F)F)nn(C)c1F [Example 6]
[1]
  logP: 2.73
[4]
  Efficacy: 95%
[5]
  Efficacy: 70%

## CC(CCc1ccccc1)NC(=O)c1c(C(F)F)nn(C)c1Cl (stereo not shown) [Example 11]
[1]
  logP: 3.04
[4]
  Efficacy: 95%
[5]
  Efficacy: 100%

## CC(CCc1ccccc1)NC(=O)c1c(C(F)F)nn(C)c1F (stereo not shown) [Example 12]
[1]
  logP: 2.88
[4]
  Efficacy: 95%
[5]
  Efficacy: 100%

## CC(COc1ccccc1)N(C)C(=O)c1c(C(F)F)nn(C)c1F (stereo not shown) [Example 16]
[1]
  logP: 2.62
[4]
  Efficacy: 90%
[5]
  Efficacy: 90%

## CN(CC(NC(=O)c1c(C(F)F)nn(C)c1F)C1CC1)c1ccccc1 (stereo not shown) [Example 17]
[1]
  logP: 3.02
[4]
  Efficacy: 95%

## Cn1nc(C(F)F)c(C(=O)NC(COc2ccccc2)C2CC2)c1F (stereo not shown) [Example 19]
[1]
  logP: 3.06
[4]
  Efficacy: 95%
[5]
  Efficacy: 89%

## CN(C(=O)c1c(C(F)F)nn(C)c1F)C(COc1ccccc1)C1CC1 (stereo not shown) [Example 21]
[1]
  logP: 3.08
[4]
  Efficacy: 90%
[5]
  Efficacy: 80%

## Cn1nc(C(F)F)c(C(=O)NC(CSc2ccccc2)C2CC2)c1F (stereo not shown) [Example 22]
[1]
  logP: 3.25
[4]
  Efficacy: 95%

## CN(c1ccc(Oc2ccccc2)cc1)C(CNC(=O)c1c(C(F)F)nn(C)c1Cl)C(F)(F)F (stereo not shown) [Example 32]
[1]
  logP: 4.27
[4]
  Efficacy: 95%
[5]
  Efficacy: 70%

## CN(c1ccc(Oc2ccccc2)cc1)C(CNC(=O)c1c(C(F)F)nn(C)c1F)C(F)(F)F (stereo not shown) [Example 33]
[1]
  logP: 4.16
[4]
  Efficacy: 95%
[5]
  Efficacy: 95%

## Cn1nc(C(F)F)c(C(=O)NCCOc2ccc(Oc3ccccc3)cc2)c1F [Example 34]
[1]
  logP: 3.42
[4]
  Efficacy: 90%

## CCN(C(=O)c1c(C(F)F)nn(C)c1F)C(C)COc1ccc(C)cc1 (stereo not shown) [Example 38]
[1]
  logP: 3.27
[4]
  Efficacy: 80%
[5]
  Efficacy: 80%

## Cc1ccc(SCC(C2CC2)N(C)C(=O)c2c(C(F)F)nn(C)c2F)cc1 (stereo not shown) [Example 40]
[1]
  logP: 3.64
[4]
  Efficacy: 95%
[5]
  Efficacy: 80%

## Cn1nc(C(F)F)c(C(=O)NC2(COc3ccc(Cl)cc3)CC2)c1F [Example 44]
[1]
  logP: 3.00
[4]
  Efficacy: 100%

## Cn1nc(C(F)F)c(C(=O)NC2(COc3ccc(Cl)cc3)CC2)c1Cl [Example 45]
[1]
  logP: 3.19
[4]
  Efficacy: 95%

## Cn1nc(C(F)F)c(C(=O)NCC(Sc2ccc(Cl)cc2)C(F)(F)F)c1F (stereo not shown) [Example 46]
[1]
  logP: 3.73
[4]
  Efficacy: 100%
[5]
  Efficacy: 100%

## Cn1nc(C(F)F)c(C(=O)NCC(Sc2ccc(Cl)cc2)C(F)(F)F)c1Cl (stereo not shown) [Example 47]
[1]
  logP: 3.89
[4]
  Efficacy: 80%

## Cn1nc(C(F)F)c(C(=O)NCCOc2ccc(Cl)cc2)c1F [Example 48]
[1]
  logP: 2.78
[4]
  Efficacy: 90%

## CC(C)C(CCc1ccc(Cl)cc1)NC(=O)c1c(C(F)F)nn(C)c1F (stereo not shown) [Example 63]
[1]
  logP: 3.94
[4]
  Efficacy: 100%
[5]
  Efficacy: 100%

## CCC(COc1cc(C)cc(C)n1)NC(=O)c1c(C(F)F)nn(C)c1Cl (stereo not shown) [Example 67]
[1]
  logP: 2.14
[4]
  Efficacy: 70%
[5]
  Efficacy: 100%

## Cn1nc(C(F)F)c(C(=O)NCCOc2ccc(C(F)(F)F)cc2)c1Cl [Example 69]
[1]
  logP: 3.17
[4]
  Efficacy: 80%

## Cn1nc(C(F)F)c(C(=O)NCCOc2cccc(Oc3ccccc3)c2)c1F [Example 74]
[1]
  logP: 3.41
[4]
  Efficacy: 95%

## Cn1nc(C(F)F)c(C(=O)NC(C)(C)CCc2cccc(Cl)c2)c1Cl [Example 83]
[1]
  logP: 4.01
[4]
  Efficacy: 95%
[5]
  Efficacy: 95%

## Cn1nc(C(F)F)c(C(=O)NC(C)(C)CCc2cccc(Cl)c2)c1F [Example 84]
[1]
  logP: 3.83
[4]
  Efficacy: 95%
[5]
  Efficacy: 95%

## CC(CNC(=O)c1c(C(F)F)nn(C)c1Cl)Cc1cc(Cl)cc(Cl)c1 (stereo not shown) [Example 115]
[1]
  logP: 4.04
[4]
  Efficacy: 90%
[5]
  Efficacy: 100%

## Cn1nc(C(F)F)c(C(=O)NC(C)(C)CCc2cccc(C(F)(F)F)c2)c1Cl [Example 135]
[1]
  logP: 4.11
[5]
  Efficacy: 90%

## CN(CCCc1ccccc1Cl)C(=O)c1c(C(F)F)nn(C)c1Cl [Example 141]
[1]
  logP: 3.17
[5]
  Efficacy: 90%

## Cn1nc(C(F)F)c(C(=O)NC(C)(C)CCc2ccccc2Cl)c1Cl [Example 147]
[1]
  logP: 3.99
[5]
  Efficacy: 100%

## Cc1cccc(C)c1OCC(C)N(C(=O)c1c(C(F)F)nn(C)c1Cl)C1CC1 (stereo not shown) [Example 156]
[1]
  logP: 4.15
[4]
  Efficacy: 80%
[5]
  Efficacy: 95%

## CC(CNC(=O)c1c(C(F)F)nn(C)c1Cl)Cc1c(F)cccc1F (stereo not shown) [Example 158]
[1]
  logP: 3.21
[4]
  Efficacy: 80%
[5]
  Efficacy: 95%

## Cn1nc(C(F)F)c(C(=O)NCCOc2c(F)cccc2F)c1F [Example 159]
[1]
  logP: 2.44
[4]
  Efficacy: 90%

## CC(CNC(=O)c1c(C(F)F)nn(C)c1Cl)Cc1cc(Cl)ccc1Cl (stereo not shown) [Example 164]
[1]
  logP: 3.87
[4]
  Efficacy: 95%
[5]
  Efficacy: 100%

## Cn1nc(C(F)F)c(C(=O)NCCOc2cc(Cl)ccc2Cl)c1Cl [Example 170]
[1]
  logP: 3.31
[4]
  Efficacy: 90%

## CC(CCc1cc(Cl)ccc1Cl)NC(=O)c1c(C(F)F)nn(C)c1Cl (stereo not shown) [Example 171]
[1]
  logP: 3.87
[4]
  Efficacy: 95%
[5]
  Efficacy: 100%

## CCC(COc1cc(Cl)ccc1Cl)NC(=O)c1c(C(F)F)nn(C)c1Cl (stereo not shown) [Example 176]
[1]
  logP: 4.01
[4]
  Efficacy: 80%
[5]
  Efficacy: 95%

## Cn1nc(C(F)F)c(C(=O)NC(C)(C)CCc2cc(Cl)ccc2Cl)c1Cl [Example 177]
[1]
  logP: 4.49
[4]
  Efficacy: 100%
[5]
  Efficacy: 100%

## Cn1nc(C(F)F)c(C(=O)NCCCc2ccc(Cl)cc2Cl)c1Cl [Example 179]
[1]
  logP: 3.68
[5]
  Efficacy: 100%

## CC(COc1ccc(Cl)cc1Cl)N(C(=O)c1c(C(F)F)nn(C)c1Cl)C1CC1 (stereo not shown) [Example 188]
[1]
  logP: 4.41
[4]
  Efficacy: 100%
[5]
  Efficacy: 100%

## Cn1nc(C(F)F)c(C(=O)NC(COc2ccc(Cl)cc2Cl)C2CC2)c1Cl (stereo not shown) [Example 194]
[1]
  logP: 4.18
[4]
  Efficacy: 70%

## Cn1nc(C(F)F)c(C(=O)NC(C)(C)CCc2ccc(Cl)cc2Cl)c1Cl [Example 195]
[1]
  logP: 4.61
[4]
  Efficacy: 95%
[5]
  Efficacy: 95%

## Cn1nc(C(F)F)c(C(=O)N(CCOc2c(Cl)cc(Cl)cc2Cl)C2COC2)c1F [Example 210]
[1]
  logP: 3.42
[4]
  Efficacy: 70%
[5]
  Efficacy: 90%

## CN(C(=O)c1c(C(F)F)nn(C)c1Cl)C(CSCc1ccccc1)C1CC1 (stereo not shown) [Example 224]
[1]
  logP: 3.62
[4]
  Efficacy: 70%

## Cn1nc(C(F)F)c(C(=O)NC2CCCC2Sc2ncccn2)c1F (stereo not shown) [Example 258]
[1]
  logP: 2.17
[5]
  Efficacy: 89%

## Cc1cccc(OC2CCCC2NC(=O)c2c(C(F)F)nn(C)c2Cl)c1 (stereo not shown) [Example 260]
[1]
  logP: 3.78
[5]
  Efficacy: 70%

## CC(C)OC1CCCC(NC(=O)c2c(C(F)F)nn(C)c2F)C1 (stereo not shown) [Example 325]
[1]
  logP: 2.06
[4]
  Efficacy: 95%

## Cn1nc(C(F)F)c(C(=O)NC2CCCCC2C(C)(C)C)c1F (stereo not shown) [Example 349]
[1]
  logP: 3.79
[5]
  Efficacy: 95%

## Cn1nc(C(F)F)c(C(=O)NCC2CCCC(C(F)(F)F)C2)c1F (stereo not shown) [Example 379]
[1]
  logP: 2.96
[4]
  Efficacy: 95%
[5]
  Efficacy: 100%

## Cn1nc(C(F)F)c(C(=O)NC2(C3CCCCC3)CC2)c1Cl [Example 380]
[1]
  logP: 3.29
[4]
  Efficacy: 95%
[5]
  Efficacy: 100%
